Laboratory results from paper PMC8416343, “A Facile Procedure for One-Pot Stable Conjugation of Two Proglucagon Cysteine-Containing Peptide Analogs” (Frontiers in Endocrinology, 2021).

Key:
[1] = Hydrolysis of thiosuccinimide / chemical stability of linker and conjugates, LC-MS; details: for Time to complete hydrolysis of thiosuccinimide: pH 9.6, carbonate-diluted reaction mixture, LC-MS
[2] = target: T1, human GcgR (Homo sapiens, UniProt P47871); assay: Glucagon receptor activation, cAMP response element-luciferase reporter in BHK cells; assay type: cell-based; details: for Statistical significance of EC50 difference at human glucagon receptor: between peptide 4 and peptide 5, Student's unpaired t-test, n=6; for EC50: stably transfected BHK cells over-expressing human GcgR, CRE-luciferase, 3 h at 37°C, assay buffer with 1% ovalbumin, 12-point 3.5-fold dilution, n=6, kind of +/- not stated
T1 construct: expressed in transfected cells; host or cells: BHK cells (stably transfected, with CRE-firefly luciferase reporter)
Method: (§1) Receptor activation data was collected utilizing stably transfected BHK cells over-expressing either the human GLP-1R or GcgR and firefly luciferase reporter gene linked to the cAMP response element. The cells were maintained in continuous culture in DMEM supplemented with 10% HI FBS, 300 ug/mL hygromycin, and 500 ug/mL G418 at 37°C with 5% CO2. Cells were plated in the supplemented DMEM at 5,000 cells per well in 96 well poly-D-Lysine coated Corning BioCoat plates and incubated overnight at 37°C with 5% CO2. After the overnight incubation, the media was removed from the cell plates, washed once with DPBS, and 50uL of the assay buffer (DMEM without phenol red, 10 mM Hepes, 1x Glutamax, 1% ovalbumin, and 0.1% Pluronic F-68) was added to the plate. In a separate 96 well plate, the test compounds were serially diluted by 3.5-fold across the row of the plate to create a 12-point dilution curve. […] After the incubation, the assay plates were washed once in DPBS. Following the wash, 100 uL of DPBS was added to each well of the plates followed by 100 uL of the steadylite plus reagent (PerkinElmer). The assay plates were covered to protect from light, incubated at room temperature with shaking at 250 rpm for 30 minutes and read using a microtiter plate reader. The data was plotted using GraphPad Prism 9.0.1 with the nonlinear regression log(agonist) vs. response analysis to obtain the EC50 for each compound. Additionally, GraphPad Prism was used to complete the statistical analysis of the EC50 values with n=6 was using the Student’s unpaired t-test analysis.

[3] = system: human GLP-1 and glucagon receptors; assay: Glucagon and GLP-1 receptor activation, both receptors together (summary statements); assay type: cell-based; details: heterodimers of glucagon and GLP-1 analogs; conclusion
Method: as §1, with “The data was plotted using GraphPad Prism 9.0.1 with the nonlinear regression log(agonist) vs. response analysis to obtain the EC50 for each compound. Additionally, GraphPad Prism was used to complete the statistical analysis of the EC50 values with n=6 was using the Student’s unpaired t-test analysis.” left out

[4] = target: T2, human GLP-1R (Homo sapiens, UniProt P43220); assay: GLP-1 receptor activation, cAMP response element-luciferase reporter in BHK cells; assay type: cell-based; details: for Statistical significance of EC50 difference at human GLP-1 receptor: between human GLP-1, peptide 4 and peptide 5, Student's unpaired t-test, n=6; for EC50: stably transfected BHK cells over-expressing human GLP-1R, CRE-luciferase, 3 h at 37°C, assay buffer with 1% ovalbumin, 12-point 3.5-fold dilution, n=6, kind of +/- not stated
T2 construct: expressed in transfected cells; host or cells: BHK cells (stably transfected, with CRE-firefly luciferase reporter)
Method: as §1

[5] = pH 9.6

T1 sequence (P47871 26-477): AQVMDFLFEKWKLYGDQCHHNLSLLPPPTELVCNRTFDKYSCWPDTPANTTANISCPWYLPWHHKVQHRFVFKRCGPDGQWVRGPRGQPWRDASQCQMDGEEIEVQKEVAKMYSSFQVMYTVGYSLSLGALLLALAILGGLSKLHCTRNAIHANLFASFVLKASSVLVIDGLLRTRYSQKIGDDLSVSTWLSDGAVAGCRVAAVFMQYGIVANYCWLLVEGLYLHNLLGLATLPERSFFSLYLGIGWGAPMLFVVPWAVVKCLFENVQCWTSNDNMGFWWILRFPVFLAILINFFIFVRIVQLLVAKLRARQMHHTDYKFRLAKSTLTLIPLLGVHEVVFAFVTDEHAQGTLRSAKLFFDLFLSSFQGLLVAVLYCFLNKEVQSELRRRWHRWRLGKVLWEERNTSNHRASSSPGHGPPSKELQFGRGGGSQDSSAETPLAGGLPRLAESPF
T2 sequence (P43220 24-463): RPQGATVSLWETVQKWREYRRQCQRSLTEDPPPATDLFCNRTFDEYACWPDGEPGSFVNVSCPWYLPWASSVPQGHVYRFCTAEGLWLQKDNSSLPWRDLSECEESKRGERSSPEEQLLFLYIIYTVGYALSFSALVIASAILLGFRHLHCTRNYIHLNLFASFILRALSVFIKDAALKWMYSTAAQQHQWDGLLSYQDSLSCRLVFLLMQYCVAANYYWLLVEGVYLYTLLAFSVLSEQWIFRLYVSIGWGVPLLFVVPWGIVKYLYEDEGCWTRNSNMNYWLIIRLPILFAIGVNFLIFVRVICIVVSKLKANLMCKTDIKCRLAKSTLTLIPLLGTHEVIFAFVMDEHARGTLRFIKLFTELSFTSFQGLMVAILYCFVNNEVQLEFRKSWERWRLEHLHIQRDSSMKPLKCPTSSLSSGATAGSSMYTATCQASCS

| Stability of linker ([1]; pH range of 6.0-8.3, compared with the self-hydrolysable maleimido linker) | SMILES | Potency at human GCG receptor, in words ([2]; BHK cells, human GcgR, reduced versus native human glucagon, comparable between peptides 4 and 5) | Statistical significance of EC50 difference at human glucagon receptor [2] | EC50 [2] | GLP-1 receptor activity relative to glucagon [3] | Statistical significance of EC50 difference at human GLP-1 receptor [4] | Potency in stimulating cAMP at GLP-1 receptors, in words ([4]; compared with native GLP-1, BHK cells, human GLP-1R) | EC50 [4] | Thiosuccinimide hydrolysis at pH 8.3 ([1]; pH 8.3, prolonged alkylation time) | Time to complete hydrolysis of thiosuccinimide ([1]; 37°C) | Time to complete hydrolysis of thiosuccinimide ([1]; room temperature) | Degradation of the conjugate during hydrolysis [5] |
| --- | --- | --- | --- | --- | --- | --- | --- | --- | --- | --- | --- | --- |
| enhanced stability | O=C(CI)NCCN1C(=O)C=CC1=O [Linker 1, N-(2-(2,5-dioxo-2,5-dihydro-1H-pyrrol-1-yl)ethyl)-2-iodoacetamide] | – | – | – | – | – | – | – | – | – | – | – |
| – | CC[C@H](C)[C@H](NC(=O)[C@H](Cc1ccccc1)NC(=O)[C@H](CCC(=O)O)NC(=O)[C@H](CCCCN)NC(=O)[C@H](C)NC(=O)[C@H](C)NC(=O)[C@H](CCC(N)=O)NC(=O)[C@H](CCC(=O)O)NC(=O)[C@H](CCC(=O)O)NC(=O)[C@H](CC(C)C)NC(=O)[C@H](Cc1ccc(O)cc1)NC(=O)[C@H](CO)NC(=O)[C@H](CO)NC(=O)[C@@H](NC(=O)[C@H](CC(=O)O)NC(=O)[C@H](CO)NC(=O)[C@@H](NC(=O)[C@H](Cc1ccccc1)NC(=O)[C@@H](NC(=O)CNC(=O)[C@H](CCC(=O)O)NC(=O)C(C)(C)NC(=O)[C@@H](N)Cc1c[nH]cn1)[C@@H](C)O)[C@@H](C)O)C(C)C)C(=O)N[C@@H](C)C(=O)N[C@@H](Cc1c[nH]c2ccccc12)C(=O)N[C@@H](CC(C)C)C(=O)N[C@H](C(=O)N[C@@H](CCCCN)C(=O)NCC(=O)NCC(=O)N1CCC[C@H]1C(=O)N[C@@H](CO)C(=O)N[C@@H](CO)C(=O)NCC(=O)N[C@@H](C)C(=O)N1CCC[C@H]1C(=O)N1CCC[C@H]1C(=O)N1CCC[C@H]1C(=O)N[C@@H](CO)C(=O)N[C@@H](CSCC(=O)NCCN1C(=O)CC(SC[C@H](NC(=O)[C@H](CO)NC(=O)[C@@H]2CCCN2C(=O)[C@@H]2CCCN2C(=O)[C@@H]2CCCN2C(=O)[C@H](C)NC(=O)CNC(=O)[C@H](CO)NC(=O)[C@H](CO)NC(=O)[C@@H]2CCCN2C(=O)CNC(=O)CNC(=O)[C@H](CC(N)=O)NC(=O)[C@H](CCSC)NC(=O)[C@H](CC(C)C)NC(=O)[C@H](Cc2c[nH]c3ccccc23)NC(=O)[C@H](CCC(N)=O)NC(=O)[C@@H](NC(=O)[C@H](Cc2ccccc2)NC(=O)[C@H](CC(=O)O)NC(=O)[C@H](CCC(N)=O)NC(=O)[C@H](C)NC(=O)[C@H](CCCNC(=N)N)NC(=O)[C@H](CCCNC(=N)N)NC(=O)[C@H](CO)NC(=O)[C@H](CC(=O)O)NC(=O)[C@H](CC(C)C)NC(=O)[C@H](Cc2ccc(O)cc2)NC(=O)[C@H](CCCCN)NC(=O)[C@H](CO)NC(=O)[C@H](Cc2ccc(O)cc2)NC(=O)[C@H](CC(=O)O)NC(=O)[C@H](CO)NC(=O)[C@@H](NC(=O)[C@H](Cc2ccccc2)NC(=O)[C@@H](NC(=O)CNC(=O)[C@H](CCC(N)=O)NC(=O)[C@H](CO)NC(=O)[C@@H](N)Cc2c[nH]cn2)[C@@H](C)O)[C@@H](C)O)C(C)C)C(N)=O)C1=O)C(N)=O)C(C)C (stereo partly shown) [Peptide 4] | reduced but comparable potency | no statistical significance | 0.607 ± 0.428 nM | much enhanced GLP-1 receptor activity relative to glucagon | no statistical significance | comparable potency to native GLP-1 | 0.00468 ± 0.00153 nM | did not result in sufficient thiosuccinimide hydrolysis | ≤ 1 h | approximately 12 hours | – |
| – | CC[C@H](C)[C@H](NC(=O)[C@H](Cc1ccccc1)NC(=O)[C@H](CCC(=O)O)NC(=O)[C@H](CCCCN)NC(=O)[C@H](C)NC(=O)[C@H](C)NC(=O)[C@H](CCC(N)=O)NC(=O)[C@H](CCC(=O)O)NC(=O)[C@H](CCC(=O)O)NC(=O)[C@H](CC(C)C)NC(=O)[C@H](Cc1ccc(O)cc1)NC(=O)[C@H](CO)NC(=O)[C@H](CO)NC(=O)[C@@H](NC(=O)[C@H](CC(=O)O)NC(=O)[C@H](CO)NC(=O)[C@@H](NC(=O)[C@H](Cc1ccccc1)NC(=O)[C@@H](NC(=O)CNC(=O)[C@H](CCC(=O)O)NC(=O)C(C)(C)NC(=O)[C@@H](N)Cc1c[nH]cn1)[C@@H](C)O)[C@@H](C)O)C(C)C)C(=O)N[C@@H](C)C(=O)N[C@@H](Cc1c[nH]c2ccccc12)C(=O)N[C@@H](CC(C)C)C(=O)N[C@H](C(=O)N[C@@H](CCCCN)C(=O)NCC(=O)NCC(=O)N1CCC[C@H]1C(=O)N[C@@H](CO)C(=O)N[C@@H](CO)C(=O)NCC(=O)N[C@@H](C)C(=O)N1CCC[C@H]1C(=O)N1CCC[C@H]1C(=O)N1CCC[C@H]1C(=O)N[C@@H](CO)C(=O)N[C@@H](CSCC(=O)NCCNC(=O)C(CC(=O)O)SC[C@H](NC(=O)[C@H](CO)NC(=O)[C@@H]1CCCN1C(=O)[C@@H]1CCCN1C(=O)[C@@H]1CCCN1C(=O)[C@H](C)NC(=O)CNC(=O)[C@H](CO)NC(=O)[C@H](CO)NC(=O)[C@@H]1CCCN1C(=O)CNC(=O)CNC(=O)[C@H](CC(N)=O)NC(=O)[C@H](CCSC)NC(=O)[C@H](CC(C)C)NC(=O)[C@H](Cc1c[nH]c2ccccc12)NC(=O)[C@H](CCC(N)=O)NC(=O)[C@@H](NC(=O)[C@H](Cc1ccccc1)NC(=O)[C@H](CC(=O)O)NC(=O)[C@H](CCC(N)=O)NC(=O)[C@H](C)NC(=O)[C@H](CCCNC(=N)N)NC(=O)[C@H](CCCNC(=N)N)NC(=O)[C@H](CO)NC(=O)[C@H](CC(=O)O)NC(=O)[C@H](CC(C)C)NC(=O)[C@H](Cc1ccc(O)cc1)NC(=O)[C@H](CCCCN)NC(=O)[C@H](CO)NC(=O)[C@H](Cc1ccc(O)cc1)NC(=O)[C@H](CC(=O)O)NC(=O)[C@H](CO)NC(=O)[C@@H](NC(=O)[C@H](Cc1ccccc1)NC(=O)[C@@H](NC(=O)CNC(=O)[C@H](CCC(N)=O)NC(=O)[C@H](CO)NC(=O)[C@@H](N)Cc1c[nH]cn1)[C@@H](C)O)[C@@H](C)O)C(C)C)C(N)=O)C(N)=O)C(C)C (stereo partly shown) [Peptide 5] | – | no statistical significance | 0.323 ± 0.187 nM | – | no statistical significance | – | 0.00485 ± 0.00429 nM | – | – | – | without detectable degradation |
